Source: US10336792B2, “Antimicrobial peptide dendrimers” (priority 2014, dated 2019)
≈ marks a conversion by molar mass, not a printed value. Positions of bridges follow the written chain, without caps; N, C: chain ends. Non-standard residues stand in square brackets, D forms with d. Residues, ends and D or L forms follow the SMILES beside them. Groups on a side chain read outwards from the residue. Chains are numbered I, II in the order given. *: point of attachment. Octanoyl = CCCCCCCC(=O)*; Dap = NC[C@H](N)C(=O)O; Hexanoyl = CCCCCC(=O)*

Key:
Type in all cases: cell-based
[1] = test system: Pseudomonas aeruginosa (strain PA01); test: microbe, parasite or virus in culture; conditions: strain
How it was run: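 Broth microdilution MIC against P. aeruginosa PAO1 in LB: peptides serially diluted by ⅔, bacteria added at OD600 0.001 and incubated 18–24 h at 37 °C. MTT added; MIC is the lowest concentration preventing visible growth.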

[2] = test system: Bacillus subtilis (strain BR151); conditions: strain BR151
Description: (§1) Antimicrobial activity was assayed against Bacillus subtilis (strain BR151), Escherichia coli (strain DH5α) and Pseudomonas aeruginosa (strain PA01). Microdilution broth method was used to determine the minimal inhibitory concentration (MIC). A colony of bacteria was grown in LB-medium overnight at 37° C. The concentration was quantified by measuring absorbance at 600 nm and diluted to OD600=0.1 (1×10^8 CFU/mL). The samples were prepared as stock solutions of 1 mg mL^−1 in H2O and diluted serially by ⅔ in nutrient LB in a 96-well microtiterplate (Cornstar, polypropylene, untreated). The sample solutions (50 μL) were mixed with the diluted bacterial suspension with an OD600 nm of 0.001 (50 μL). […] The plates were incubated at 37° C. until satisfactory growth (18-24 h). For each test, two columns of the plate were kept for sterility control (SC, broth only) and growth control (GC, broth with bacterial inoculums, no antibiotics). 10 μL of a solution of MTT (0.1% in H2O) was added to each well. The minimal inhibitory concentration (MIC) was defined as the lowest concentration of the antimicrobial substance (peptide dendrimer) that inhibited visible growth of the tested bacteria (yellow) with the unaided eye. For microbiological study the linear peptide LysTyrLysLysAlaLeuLysLysLeuAlaLysLeuLeu (SEQ ID No. 1) was used as reference.
(§2) The AMPD library was tested for their antimicrobial activity against B. subtilis BR151, a Gram-positive bacterium and E. coli DH5α, another Gram-negative bacterium, to cover a broader spectrum of different bacteria. […] Therefore no explicit SAR can be established, but clearly the hydrophobic amino acids Ala and Tyr seem to have a significant influence in reducing activity.

[3] = test system: Escherichia coli (strain DH5α); conditions: DH5α
Description: as §1, §2

SMILES | MIC P. aeruginosa PAO1 [1] [µg/mL] | MIC B. subtilis BR151 [2] [µg/mL] | MIC E. coli DH5α [3] [µg/mL]
CC(C)C[C@H](NC(=O)[C@H](CCCCN)NC(=O)[C@H](CNC(=O)[C@H](CC(C)C)NC(=O)[C@H](CCCCN)NC(=O)[C@H](CNC(=O)[C@H](CC(C)C)NC(=O)[C@H](CCCCN)NC(=O)[C@H](CNC(=O)[C@H](CC(C)C)NC(=O)[C@@H](N)CCCCN)NC(=O)[C@H](CC(C)C)NC(=O)[C@@H](N)CCCCN)NC(=O)[C@H](CC(C)C)NC(=O)[C@H](CCCCN)NC(=O)[C@H](CNC(=O)[C@H](CC(C)C)NC(=O)[C@@H](N)CCCCN)NC(=O)[C@H](CC(C)C)NC(=O)[C@@H](N)CCCCN)NC(=O)[C@H](CC(C)C)NC(=O)[C@H](CCCCN)NC(=O)[C@H](CNC(=O)[C@H](CC(C)C)NC(=O)[C@H](CCCCN)NC(=O)[C@H](CNC(=O)[C@H](CC(C)C)NC(=O)[C@@H](N)CCCCN)NC(=O)[C@H](CC(C)C)NC(=O)[C@@H](N)CCCCN)NC(=O)[C@H](CC(C)C)NC(=O)[C@H](CCCCN)NC(=O)[C@H](CNC(=O)[C@H](CC(C)C)NC(=O)[C@@H](N)CCCCN)NC(=O)[C@H](CC(C)C)NC(=O)[C@@H](N)CCCCN)C(N)=O [MSt-136, (KL)8(BKL)4(BKL)2(BKL)] (I: H-KL[Dap]([Leu-Lys])KL[Dap]KL[Dap]KL-NH2 / II: H-KL[Dap]([Leu-Lys])KL[Dap]KL / III: H-KL[Dap]([Leu-Lys])KL / IV: H-KL[Dap]([Leu-Lys])KL; amide I:6-IV:C, I:9-II:C, II:6-III:C) | 2 (≈ 0.472 µM) | 2 (≈ 0.472 µM) | 1 (≈ 0.236 µM)
CC(C)C[C@H](NC(=O)[C@H](CCCNC(=N)N)NC(=O)[C@H](CCCCNC(=O)[C@H](CC(C)C)NC(=O)[C@@H](N)CCCNC(=N)N)NC(=O)[C@H](CC(C)C)NC(=O)[C@@H](N)CCCNC(=N)N)C(=O)NCCCC[C@H](NC(=O)[C@H](CC(C)C)NC(=O)[C@H](CCCNC(=N)N)NC(=O)[C@H](CCCCNC(=O)[C@H](CC(C)C)NC(=O)[C@@H](N)CCCNC(=N)N)NC(=O)[C@H](CC(C)C)NC(=O)[C@@H](N)CCCNC(=N)N)C(=O)N[C@@H](CCCNC(=N)N)C(=O)N[C@@H](CC(C)C)C(=O)N[C@@H](CSSC[C@H](NC(=O)[C@H](CC(C)C)NC(=O)[C@H](CCCNC(=N)N)NC(=O)[C@H](CCCCNC(=O)[C@H](CC(C)C)NC(=O)[C@H](CCCNC(=N)N)NC(=O)[C@H](CCCCNC(=O)[C@H](CC(C)C)NC(=O)[C@@H](N)CCCNC(=N)N)NC(=O)[C@H](CC(C)C)NC(=O)[C@@H](N)CCCNC(=N)N)NC(=O)[C@H](CC(C)C)NC(=O)[C@H](CCCNC(=N)N)NC(=O)[C@H](CCCCNC(=O)[C@H](CC(C)C)NC(=O)[C@@H](N)CCCNC(=N)N)NC(=O)[C@H](CC(C)C)NC(=O)[C@@H](N)CCCNC(=N)N)C(N)=O)C(N)=O [CCS-18 dimer, ((RL)4(KRL)2KRLC)2] (I: H-RLK([Leu-Arg])RLKRLC-NH2 / II: H-RLK([Leu-Arg])RLKRLC-NH2 / III: H-RLK([Leu-Arg])RL / IV: H-RLK([Leu-Arg])RL; amide I:6-III:C, II:6-IV:C; disulfide I:9-II:9; N-terminus assumed) | 9 (≈ 1.88 µM) | 9 (≈ 1.88 µM) | 13 (≈ 2.72 µM)
CCCCCC(=O)NCCCC[C@H](NC(=O)[C@H](CC(C)C)NC(=O)[C@H](CCCCN)NC(=O)[C@H](CCCCNC(=O)[C@H](CC(C)C)NC(=O)[C@H](CCCCN)NC(=O)[C@H](CCCCNC(=O)[C@H](CC(C)C)NC(=O)[C@H](CCCCN)NC(=O)[C@H](CCCCNC(=O)[C@H](CC(C)C)NC(=O)[C@@H](N)CCCCN)NC(=O)[C@H](CC(C)C)NC(=O)[C@@H](N)CCCCN)NC(=O)[C@H](CC(C)C)NC(=O)[C@H](CCCCN)NC(=O)[C@H](CCCCNC(=O)[C@H](CC(C)C)NC(=O)[C@@H](N)CCCCN)NC(=O)[C@H](CC(C)C)NC(=O)[C@@H](N)CCCCN)NC(=O)[C@H](CC(C)C)NC(=O)[C@H](CCCCN)NC(=O)[C@H](CCCCNC(=O)[C@H](CC(C)C)NC(=O)[C@H](CCCCN)NC(=O)[C@H](CCCCNC(=O)[C@H](CC(C)C)NC(=O)[C@@H](N)CCCCN)NC(=O)[C@H](CC(C)C)NC(=O)[C@@H](N)CCCCN)NC(=O)[C@H](CC(C)C)NC(=O)[C@H](CCCCN)NC(=O)[C@H](CCCCNC(=O)[C@H](CC(C)C)NC(=O)[C@@H](N)CCCCN)NC(=O)[C@H](CC(C)C)NC(=O)[C@@H](N)CCCCN)C(N)=O [MSt-264, (KL)8(KKL)4(KKL)2(KKLKC6)] (I: H-KLK([Leu-Lys])KLKKLKKLK(Hexanoyl)-NH2 / II: H-KLK([Leu-Lys])KLKKL / III: H-KLK([Leu-Lys])KL / IV: H-KLK([Leu-Lys])KL; amide I:6-IV:C, I:9-II:C, II:6-III:C) | 1 (≈ 0.21 µM) | 5 (≈ 1.05 µM) | 1 (≈ 0.21 µM)
CC(C)C[C@H](NC(=O)[C@H](CCCNC(=N)N)NC(=O)[C@H](CNC(=O)[C@H](CC(C)C)NC(=O)[C@H](CCCNC(=N)N)NC(=O)[C@H](CNC(=O)[C@H](CC(C)C)NC(=O)[C@H](CCCNC(=N)N)NC(=O)[C@H](CNC(=O)[C@H](CC(C)C)NC(=O)[C@@H](N)CCCNC(=N)N)NC(=O)[C@H](CC(C)C)NC(=O)[C@@H](N)CCCNC(=N)N)NC(=O)[C@H](CC(C)C)NC(=O)[C@H](CCCNC(=N)N)NC(=O)[C@H](CNC(=O)[C@H](CC(C)C)NC(=O)[C@@H](N)CCCNC(=N)N)NC(=O)[C@H](CC(C)C)NC(=O)[C@@H](N)CCCNC(=N)N)NC(=O)[C@H](CC(C)C)NC(=O)[C@H](CCCNC(=N)N)NC(=O)[C@H](CNC(=O)[C@H](CC(C)C)NC(=O)[C@H](CCCNC(=N)N)NC(=O)[C@H](CNC(=O)[C@H](CC(C)C)NC(=O)[C@@H](N)CCCNC(=N)N)NC(=O)[C@H](CC(C)C)NC(=O)[C@@H](N)CCCNC(=N)N)NC(=O)[C@H](CC(C)C)NC(=O)[C@H](CCCNC(=N)N)NC(=O)[C@H](CNC(=O)[C@H](CC(C)C)NC(=O)[C@@H](N)CCCNC(=N)N)NC(=O)[C@H](CC(C)C)NC(=O)[C@@H](N)CCCNC(=N)N)C(N)=O [MSt-137, (RL)8(BRL)4(BRL)2(BRL)] (I: H-RL[Dap]([Leu-Arg])RL[Dap]RL[Dap]RL-NH2 / II: H-RL[Dap]([Leu-Arg])RL[Dap]RL / III: H-RL[Dap]([Leu-Arg])RL / IV: H-RL[Dap]([Leu-Arg])RL; amide I:6-IV:C, I:9-II:C, II:6-III:C) | 7 (≈ 1.5 µM) | 4 (≈ 0.858 µM) | 3 (≈ 0.644 µM)
CCCCCC(=O)N[C@@H](CCCCN)C(=O)N[C@@H](CC(C)C)C(=O)NCCCC[C@H](NC(=O)[C@H](CC(C)C)NC(=O)[C@H](CCCCN)NC(=O)CCCCC)C(=O)N[C@@H](CCCCN)C(=O)N[C@@H](CC(C)C)C(=O)NCCCC[C@H](NC(=O)[C@H](CC(C)C)NC(=O)[C@H](CCCCN)NC(=O)[C@H](CCCCNC(=O)[C@H](CC(C)C)NC(=O)[C@H](CCCCN)NC(=O)CCCCC)NC(=O)[C@H](CC(C)C)NC(=O)[C@H](CCCCN)NC(=O)CCCCC)C(=O)N[C@@H](CCCCN)C(=O)N[C@@H](CC(C)C)C(N)=O [MSt-290, (C6KL)4(KKL)2(KKL)] (I: Hexanoyl-KLK([Leu-Lys-Hexanoyl])KLKKL-NH2 / II: Hexanoyl-KLK([Leu-Lys-Hexanoyl])KL; amide I:6-II:C) | 2 (≈ 0.805 µM) | 1 (≈ 0.403 µM) | 1 (≈ 0.403 µM)
CCCCCCCC(=O)NCCCC[C@H](NC(=O)[C@H](CC(C)C)NC(=O)[C@H](CCCCN)NC(=O)[C@H](CCCCNC(=O)[C@H](CC(C)C)NC(=O)[C@H](CCCCN)NC(=O)[C@H](CCCCNC(=O)[C@H](CC(C)C)NC(=O)[C@@H](N)CCCCN)NC(=O)[C@H](CC(C)C)NC(=O)[C@@H](N)CCCCN)NC(=O)[C@H](CC(C)C)NC(=O)[C@H](CCCCN)NC(=O)[C@H](CCCCNC(=O)[C@H](CC(C)C)NC(=O)[C@@H](N)CCCCN)NC(=O)[C@H](CC(C)C)NC(=O)[C@@H](N)CCCCN)C(N)=O [MSt-261, (KL)4(KKL)2(KKLKC8)] (I: H-KLK([Leu-Lys])KLKKLK(Octanoyl)-NH2 / II: H-KLK([Leu-Lys])KL; amide I:6-II:C) | 1 (≈ 0.426 µM) | 4 (≈ 1.71 µM) | 1 (≈ 0.426 µM)
